Results from ChEMBL document CHEMBL3885881, “DrugMatrix”.

Organism: Rattus norvegicus
Experiment: DrugMatrix - Regimen: Daily Repeat
Type: toxicity, organism-based, Sprague-Dawley
Set-up: regimen Daily Repeat, gender Male, age 6-8 weeks
Conditions: in vivo, po, route oral GAVAGE, […]; for ABSOLUTE BASOPHIL / ABSOLUTE EOSINOPHIL / ABSOLUTE LYMPHOCYTE / ABSOLUTE MONOCYTE / ABSOLUTE SEGMENTED NEUTROPHIL / BASOPHIL / EOSINOPHIL / ERYTHROCYTE COUNT / HEMATOCRIT / HEMOGLOBIN / LEUKOCYTE COUNT / LYMPHOCYTE / MEAN CORPUSCULAR HEMOGLOBIN / MEAN CORPUSCULAR HEMOGLOBIN CONCENTRATION / MEAN CORPUSCULAR VOLUME / MONOCYTE / NEUTROPHIL / NUCLEATED RED BLOOD CELLS / PLATELET COUNT: tissue Blood; for ALANINE AMINOTRANSFERASE / ALBUMIN / ALKALINE PHOSPHATASE / ASPARTATE AMINOTRANSFERASE / BLOOD UREA NITROGEN / CARBON DIOXIDE / CHLORIDE / CHOLESTEROL / CREATINE PHOSPHOKINASE / CREATININE / GLUCOSE / LACTATE DEHYDROGENASE / LIPASE / PHOSPHORUS / POTASSIUM / SODIUM / TOTAL BILIRUBIN / TOTAL PROTEIN / URIC ACID: tissue Plasma
[1] = 2 mg/kg, 120 h, dose level High, time 5 day
[2] = 72 h, dose 0.58 mg/Kg, dose level Low, time 3 day
[3] = 120 h, dose 0.58 mg/Kg, dose level Low, time 5 day

Question: For COc1ccc2c(c1)c(CC(=O)OCC(=O)O)c(C)n2C(=O)c1ccc(Cl)cc1 [ACEMETACIN], which “ABSOLUTE BASOPHIL” value [1] is on record?
Answer: 0 CELLS/uL

Question: And the “ABSOLUTE EOSINOPHIL” value [1]?
Answer: 198 CELLS/uL

Question: What about the “ABSOLUTE LYMPHOCYTE” value [1] of the same compound?
Answer: 16941.67 CELLS/uL

Question: What about the “ABSOLUTE MONOCYTE” value [1] of the same compound?
Answer: 330.33 CELLS/uL

Question: What about the “ABSOLUTE SEGMENTED NEUTROPHIL” value [1] of the same compound?
Answer: 2163.33 CELLS/uL

Question: And the BASOPHIL [1]?
Answer: 0%

Question: What about the EOSINOPHIL [1] of the same compound?
Answer: 1%

Question: What about the “ERYTHROCYTE COUNT” value [1] of the same compound?
Answer: 6.35 x10E6/uL

Question: What about the HEMATOCRIT [1] of the same compound?
Answer: 38.5%

Question: What about the HEMOGLOBIN [1] of the same compound?
Answer: 14.23 G/DL

Question: And the “LEUKOCYTE COUNT” value [1]?
Answer: 19.63 x10E3/uL

Question: And the LYMPHOCYTE [1]?
Answer: 86.33%

Question: And the “MEAN CORPUSCULAR HEMOGLOBIN” value [1]?
Answer: 22.47 pg

Question: And the “MEAN CORPUSCULAR HEMOGLOBIN CONCENTRATION” value [1]?
Answer: 36.97 G/DL

Question: And the “MEAN CORPUSCULAR VOLUME” value [1]?
Answer: 60.67 fL

Question: What about the MONOCYTE [1] of the same compound?
Answer: 1.67%

Question: And the NEUTROPHIL [1]?
Answer: 11%

Question: And the “NUCLEATED RED BLOOD CELLS” value [1]?
Answer: 0 /100WBC

Question: And the “PLATELET COUNT” value [1]?
Answer: 1196 x10E3/uL

Question: And the “ALANINE AMINOTRANSFERASE” value [1]?
Answer: 77 u/L

Question: What about the ALBUMIN [1] of the same compound?
Answer: 4.33 G/DL

Question: What about the “ALKALINE PHOSPHATASE” value [1] of the same compound?
Answer: 434 u/L

Question: And the “ASPARTATE AMINOTRANSFERASE” value [1]?
Answer: 106.33 u/L

Question: What about the “BLOOD UREA NITROGEN” value [1] of the same compound?
Answer: 15.33 mg/dL

Question: What about the “CARBON DIOXIDE” value [1] of the same compound?
Answer: 26 mmol/L

Question: And the CHLORIDE [1]?
Answer: 102 MEQ/L

Question: What about the CHOLESTEROL [1] of the same compound?
Answer: 58 mg/dL

Question: What about the “CREATINE PHOSPHOKINASE” value [1] of the same compound?
Answer: 673.33 u/L

Question: And the CREATININE [1]?
Answer: 0.19 mg/dL

Question: What about the GLUCOSE [1] of the same compound?
Answer: 155.33 mg/dL

Question: And the “LACTATE DEHYDROGENASE” value [1]?
Answer: 783.33 u/L

Question: What about the LIPASE [1] of the same compound?
Answer: 10 u/L

Question: What about the PHOSPHORUS [1] of the same compound?
Answer: 11.9 mg/dL

Question: And the POTASSIUM [1]?
Answer: 6.17 MEQ/L

Question: What about the SODIUM [1] of the same compound?
Answer: 143.57 MEQ/L

Question: What about the “TOTAL BILIRUBIN” value [1] of the same compound?
Answer: 0.2 mg/dL

Question: What about the “TOTAL PROTEIN” value [1] of the same compound?
Answer: 5.87 G/DL

Question: What about the “URIC ACID” value [1] of the same compound?
Answer: 1.93 mg/dL

Question: And the “ABSOLUTE BASOPHIL” value [2]?
Answer: 0 CELLS/uL

Question: And the “ABSOLUTE EOSINOPHIL” value [2]?
Answer: 126 CELLS/uL

Question: What about the “ABSOLUTE LYMPHOCYTE” value [2] of the same compound?
Answer: 13647.33 CELLS/uL

Question: And the “ABSOLUTE MONOCYTE” value [2]?
Answer: 360 CELLS/uL

Question: What about the “ABSOLUTE SEGMENTED NEUTROPHIL” value [2] of the same compound?
Answer: 1833.33 CELLS/uL

Question: What about the BASOPHIL [2] of the same compound?
Answer: 0%

Question: What about the EOSINOPHIL [2] of the same compound?
Answer: 0.67%

Question: And the “ERYTHROCYTE COUNT” value [2]?
Answer: 5.77 x10E6/uL

Question: And the HEMATOCRIT [2]?
Answer: 35.7%

Question: What about the HEMOGLOBIN [2] of the same compound?
Answer: 13.3 G/DL

Question: And the “LEUKOCYTE COUNT” value [2]?
Answer: 15.97 x10E3/uL

Question: And the LYMPHOCYTE [2]?
Answer: 85.67%

Question: What about the “MEAN CORPUSCULAR HEMOGLOBIN” value [2] of the same compound?
Answer: 23.07 pg

Question: What about the “MEAN CORPUSCULAR HEMOGLOBIN CONCENTRATION” value [2] of the same compound?
Answer: 37.23 G/DL

Question: And the “MEAN CORPUSCULAR VOLUME” value [2]?
Answer: 61.97 fL

Question: And the MONOCYTE [2]?
Answer: 2.33%

Question: What about the NEUTROPHIL [2] of the same compound?
Answer: 11.33%

Question: What about the “NUCLEATED RED BLOOD CELLS” value [2] of the same compound?
Answer: 0 /100WBC

Question: What about the “PLATELET COUNT” value [2] of the same compound?
Answer: 1055 x10E3/uL

Question: What about the “ALANINE AMINOTRANSFERASE” value [2] of the same compound?
Answer: 66 u/L

Question: And the ALBUMIN [2]?
Answer: 3.93 G/DL

Question: And the “ALKALINE PHOSPHATASE” value [2]?
Answer: 319 u/L

Question: And the “ASPARTATE AMINOTRANSFERASE” value [2]?
Answer: 94 u/L

Question: And the “BLOOD UREA NITROGEN” value [2]?
Answer: 16.33 mg/dL

Question: What about the “CARBON DIOXIDE” value [2] of the same compound?
Answer: 27 mmol/L

Question: What about the CHLORIDE [2] of the same compound?
Answer: 102.33 MEQ/L

Question: What about the CHOLESTEROL [2] of the same compound?
Answer: 67.33 mg/dL

Question: And the “CREATINE PHOSPHOKINASE” value [2]?
Answer: 359 u/L

Question: What about the CREATININE [2] of the same compound?
Answer: 0.19 mg/dL

Question: And the GLUCOSE [2]?
Answer: 160.33 mg/dL

Question: What about the “LACTATE DEHYDROGENASE” value [2] of the same compound?
Answer: 379.33 u/L

Question: And the LIPASE [2]?
Answer: 9.67 u/L

Question: What about the PHOSPHORUS [2] of the same compound?
Answer: 11.53 mg/dL

Question: What about the POTASSIUM [2] of the same compound?
Answer: 6.9 MEQ/L

Question: What about the SODIUM [2] of the same compound?
Answer: 144.43 MEQ/L

Question: And the “TOTAL BILIRUBIN” value [2]?
Answer: 0.2 mg/dL

Question: And the “TOTAL PROTEIN” value [2]?
Answer: 5.37 G/DL

Question: What about the “URIC ACID” value [2] of the same compound?
Answer: 1.47 mg/dL

Question: And the “ABSOLUTE BASOPHIL” value [3]?
Answer: 0 CELLS/uL

Question: What about the “ABSOLUTE EOSINOPHIL” value [3] of the same compound?
Answer: 113 CELLS/uL

Question: What about the “ABSOLUTE LYMPHOCYTE” value [3] of the same compound?
Answer: 13989.33 CELLS/uL

Question: What about the “ABSOLUTE MONOCYTE” value [3] of the same compound?
Answer: 257.33 CELLS/uL

Question: And the “ABSOLUTE SEGMENTED NEUTROPHIL” value [3]?
Answer: 2073.67 CELLS/uL

Question: What about the BASOPHIL [3] of the same compound?
Answer: 0%

Question: And the EOSINOPHIL [3]?
Answer: 0.67%

Question: What about the “ERYTHROCYTE COUNT” value [3] of the same compound?
Answer: 6.2 x10E6/uL

Question: And the HEMATOCRIT [3]?
Answer: 37.73%

Question: And the HEMOGLOBIN [3]?
Answer: 13.77 G/DL

Question: What about the “LEUKOCYTE COUNT” value [3] of the same compound?
Answer: 16.43 x10E3/uL

Question: And the LYMPHOCYTE [3]?
Answer: 85.33%

Question: And the “MEAN CORPUSCULAR HEMOGLOBIN” value [3]?
Answer: 22.23 pg

Question: And the “MEAN CORPUSCULAR HEMOGLOBIN CONCENTRATION” value [3]?
Answer: 36.53 G/DL

Question: And the “MEAN CORPUSCULAR VOLUME” value [3]?
Answer: 60.93 fL

Question: And the MONOCYTE [3]?
Answer: 1.67%

Question: What about the NEUTROPHIL [3] of the same compound?
Answer: 12.33%

Question: And the “NUCLEATED RED BLOOD CELLS” value [3]?
Answer: 0 /100WBC

Question: And the “PLATELET COUNT” value [3]?
Answer: 1216 x10E3/uL

Question: What about the “ALANINE AMINOTRANSFERASE” value [3] of the same compound?
Answer: 65.33 u/L

Question: What about the ALBUMIN [3] of the same compound?
Answer: 4.53 G/DL

Question: What about the “ALKALINE PHOSPHATASE” value [3] of the same compound?
Answer: 452 u/L

Question: And the “ASPARTATE AMINOTRANSFERASE” value [3]?
Answer: 90.33 u/L

Question: And the “BLOOD UREA NITROGEN” value [3]?
Answer: 19.67 mg/dL

Question: And the “CARBON DIOXIDE” value [3]?
Answer: 26.67 mmol/L

Question: What about the CHLORIDE [3] of the same compound?
Answer: 105 MEQ/L

Question: What about the CHOLESTEROL [3] of the same compound?
Answer: 58.33 mg/dL

Question: What about the “CREATINE PHOSPHOKINASE” value [3] of the same compound?
Answer: 293.67 u/L

Question: And the CREATININE [3]?
Answer: 0.22 mg/dL

Question: What about the GLUCOSE [3] of the same compound?
Answer: 163.33 mg/dL

Question: What about the “LACTATE DEHYDROGENASE” value [3] of the same compound?
Answer: 355 u/L

Question: And the LIPASE [3]?
Answer: 9 u/L

Question: What about the PHOSPHORUS [3] of the same compound?
Answer: 11.6 mg/dL

Question: What about the POTASSIUM [3] of the same compound?
Answer: 6.5 MEQ/L

Question: And the SODIUM [3]?
Answer: 145.13 MEQ/L

Question: And the “TOTAL BILIRUBIN” value [3]?
Answer: 0.13 mg/dL

Question: And the “TOTAL PROTEIN” value [3]?
Answer: 6.27 G/DL

Question: What about the “URIC ACID” value [3] of the same compound?
Answer: 1.97 mg/dL
